Measurements published in patent publication US8518957B2, “Methanocarba adenosine derivatives, pharmaceutical compositions, and method of reducing intraocular pressure” (The United States of America, as represented by the …, priority 2009, dated 2013).
Read-outs that look alike come from different tables or passages of the source.

How the values were obtained:
[1] = molecular target: T1, hA2AAR (Homo sapiens, UniProt P29274); details: cited from earlier work
T1 construct: expressed in transfected cells
T1 sequence (P29274 whole entry): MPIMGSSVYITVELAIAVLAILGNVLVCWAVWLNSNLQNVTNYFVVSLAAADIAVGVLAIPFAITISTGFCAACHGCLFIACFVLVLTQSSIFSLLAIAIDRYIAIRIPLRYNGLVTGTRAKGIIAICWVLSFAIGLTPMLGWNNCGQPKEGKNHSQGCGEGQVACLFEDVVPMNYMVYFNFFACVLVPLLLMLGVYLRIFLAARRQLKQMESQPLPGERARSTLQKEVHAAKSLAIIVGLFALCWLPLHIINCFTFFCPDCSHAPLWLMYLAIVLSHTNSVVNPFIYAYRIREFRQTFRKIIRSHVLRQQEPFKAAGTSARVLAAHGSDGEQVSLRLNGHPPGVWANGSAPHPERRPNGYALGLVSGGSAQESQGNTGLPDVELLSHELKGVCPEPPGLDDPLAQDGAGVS

[2] = molecular target: T2, human A1 AR (Homo sapiens, UniProt P30542); details: cited from earlier work
T2 construct: expressed in transfected cells
T2 sequence (P30542 1-326): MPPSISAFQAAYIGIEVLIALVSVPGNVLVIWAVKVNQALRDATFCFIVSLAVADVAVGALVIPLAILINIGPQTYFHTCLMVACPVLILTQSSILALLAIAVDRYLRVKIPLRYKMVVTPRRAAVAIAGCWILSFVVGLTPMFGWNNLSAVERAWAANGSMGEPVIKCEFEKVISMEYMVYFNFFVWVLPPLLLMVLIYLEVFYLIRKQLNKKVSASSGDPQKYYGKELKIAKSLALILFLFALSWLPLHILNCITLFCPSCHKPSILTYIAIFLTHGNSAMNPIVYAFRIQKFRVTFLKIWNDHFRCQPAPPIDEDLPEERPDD

[3] = molecular target: T3, human A3AR (Homo sapiens, UniProt P0DMS8); details: at 10 μM, relative to NECA 10 μM; values from Tosh et al.; cited from earlier work
T3 construct: expressed in transfected cells
T3 sequence (P0DMS8 1-318): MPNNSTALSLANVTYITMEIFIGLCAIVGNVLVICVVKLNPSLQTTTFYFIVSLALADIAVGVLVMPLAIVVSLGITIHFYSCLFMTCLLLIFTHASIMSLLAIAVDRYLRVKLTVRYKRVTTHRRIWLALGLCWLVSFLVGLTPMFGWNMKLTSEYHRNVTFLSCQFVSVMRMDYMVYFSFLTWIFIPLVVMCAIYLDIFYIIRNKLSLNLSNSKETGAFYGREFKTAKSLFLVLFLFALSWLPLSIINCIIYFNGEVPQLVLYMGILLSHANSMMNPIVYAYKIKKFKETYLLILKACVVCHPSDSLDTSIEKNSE

[4] = molecular target: T3, human A3AR; test: Cyclic AMP accumulation assay: inhibition of forskolin-stimulated cyclic AMP production in AR-transfected CHO cells; format: cell-based; details: at 10 μM, in comparison to the maximal effect of full agonist NECA at 10 μM
Experimental: Intracellular cyclic AMP levels were measured with a competitive protein binding method. […] CHO cells that expressed the recombinant human A3AR were harvested by trypsinization. After centrifugation and resuspended in medium, cells were planted in 24-well plates in 1.0 mL medium. After 24 h, the medium was removed and cells were washed three times with 1 mL DMEM, containing 50 mM HEPES, pH 7.4. […] After 45 min forskolin (10 μM) was added to the medium, and incubation was continued for an additional 15 min. […] The cell lysate was resuspended and stored at −20° C. For determination of cyclic AMP production, protein kinase A (PKA) was incubated with [^3H]cyclic AMP (2 nM) in K2HPO4/EDTA buffer (K2HPO4, 150 mM; EDTA, 10 mM), 20 μL of the cell lysate, and 30 μL 0.1 M HCl or 50 μL of cyclic AMP solution (0-16 pmol/200 μL for standard curve). Bound radioactivity was separated by rapid filtration through Whatman GF/C filters and washed once with cold buffer. Bound radioactivity was measured by liquid scintillation spectrometry.
Bound radioactivity was separated by rapid filtration through Whatman GF/C filters and washed the filters once with cold buffer. Bound radioactivity was measured with liquid scintillation spectrometry.

[5] = molecular target: T3, human A3AR; test: Radioligand binding at human A3 AR ([125I]I-AB-MECA, membranes of CHO cells)
Experimental: Test compounds were prepared as 5 mM stock solutions in DMSO and stored frozen at −20° C.
(§1) CHO cells stably expressing the recombinant hA1 and hA3Rs, and HEK-293 cells stably expressing the hA2AAR were cultured in Dulbecco's modified Eagle medium (DMEM) and F12 (1:1) supplemented with 10% fetal bovine serum, 100 units/mL penicillin, 100 μg/mL streptomycin, and […] glutamine. In addition, 800 μg/mL geneticin was added to the A2A media, while 500 μg/mL hygromycin was added to the A1 and A3 media. After harvesting, cells were homogenized and suspended in PBS. Cells were then centrifuged at 240 g for 5 min, and the pellet was resuspended in 50 mM Tris-HCl buffer (pH 7.5) containing 10 mM MgCl2. The suspension was homogenized and was then ultra-centrifuged at 14,330 g for 30 min at 4° C. The resultant pellets were resuspended in Tris buffer, incubated with adenosine deaminase (3 units/mL) for 30 min at 37° C. The suspension was homogenized with an electric homogenizer for 10 sec, pipetted into 1 mL vials and then stored at −80° C. until the binding experiments were conducted. The protein concentration was measured using the BCA Protein Assay Kit from Pierce Biotechnology, Inc. (Rockford, Ill.).
Into each tube in the binding assay was added 50 μL of increasing concentrations of the test ligand in Tris-HCl buffer (50 mM, pH 7.5) containing 10 mM MgCl2, 50 μl, of the appropriate agonist radioligand, and finally 100 μL of membrane suspension. […] For the A2AAR (20 μg/tube) the radioligand used was [^3H]37 (10 nM). […] Nonspecific binding was determined using a final concentration of 10 μM unlabeled 36 diluted with the buffer. The mixtures were incubated at 25° C. for 60 min in a shaking water bath. Binding reactions were terminated by filtration through Brandel GF/B filters under a reduced pressure using a M-24 cell harvester (Brandel, Gaithersburg, Md.). Filters were washed three times with 3 mL of 50 mM ice-cold Tris-HCl buffer (pH 7.5). […] Filters for A3AR binding were counted using a Packard Cobra II γ-counter. The Ki values were determined using GraphPad Prism for all assays.
Test compounds were prepared as 5-mM stock solutions in DMSO and stored frozen at −20° C.
(§2) Chinese hamster ovary (CHO) cells were generated by stably expressing the recombinant hA1 and hA3 and human embryonic kidney (HEK) 293 cells stably expressing the hA2AAR in DMEM and F12 (1:1) supplemented with 10% fetal bovine serum, 100 units/mL penicillin, 100 μg/mL streptomycin, and 2 μmol/mL glutamine. 800 μg/mL Geneticin were added to the A2A media and 500 μg/mL hygromycin to the A1 and A3 media. After harvesting the cells, they were homogenized with an electric homogenizer for 10 sec, pipetted them into 1-mL vials, and then stored them at −80° C. until the binding experiments were conducted. The protein concentration was measured with a BCA Protein Assay Kit from Pierce Biotechnology (Rockford, Ill.).
Each tube in the binding assay contained 50 μL of increasing concentrations of the test ligand in Tris-HCl buffer (50 mM, pH 7.5) containing 10 mM MgCl2, 50 μL of the appropriate agonist radioligand, and 100 μL membrane suspension, added sequentially. […] For the A2AAR (20 μg/tube), the radioligand [^3H]CGS21680 was used (−10 nM). […] The mixtures were incubated at 25° C. for 60 min in a shaking water bath. The binding reactions were terminated by filtration through Brandel GF/B filters under a reduced pressure with a M-24 cell harvester (Brandel, Gaithersburg, Md.). Filters were washed three times with 3 mL 50-mM ice-cold Tris-HCl buffer (pH 7.5). […] The filters were counted for A3AR binding with a Packard Cobra II γ-counter (PerkinElmer). The Ki values were determined with GraphPad Prism for all assays.

[6] = molecular target: T1, hA2AAR; test: Radioligand binding at human A2A AR ([3H]CGS21680, membranes of HEK-293 cells)
Experimental: (§3) [^3H](2-[p-(2-Carboxyethyl)phenyl-ethylamino]-5′-N-ethylcarboxamido-adenosine) (37, [^3H]CGS21680, 40.5 Ci/mmol) and [^125I]N^6-(4-amino-3-iodobenzyl)adenosine-5′-N-methyluronamide (38, [^125I]I-AB-MECA, 2200 Ci/mmol) were purchased from Perkin-Elmer Life and Analytical Science (Boston, Mass.). Test compounds were prepared as 5 mM stock solutions in DMSO and stored frozen at −20° C.
as §1
(§4) Into each tube in the binding assay was added 50 μL of increasing concentrations of the test ligand in Tris-HCl buffer (50 mM, pH 7.5) containing 10 mM MgCl2, 50 μl, of the appropriate agonist radioligand, and finally 100 μL of membrane suspension. For the A1AR (22 μg of protein/tube) the radioligand used was [^3H]36 (final concentration of 3.5 nM). For the A2AAR (20 μg/tube) the radioligand used was [^3H]37 (10 nM). For the A3AR (21 μg/tube) the radioligand used was [^125I]38 (0.34 nM). Nonspecific binding was determined using a final concentration of 10 μM unlabeled 36 diluted with the buffer. The mixtures were incubated at 25° C. for 60 min in a shaking water bath. Binding reactions were terminated by filtration through Brandel GF/B filters under a reduced pressure using a M-24 cell harvester (Brandel, Gaithersburg, Md.). Filters were washed three times with 3 mL of 50 mM ice-cold Tris-HCl buffer (pH 7.5). Filters for A1 and A2AAR binding were placed in scintillation vials containing 5 mL of Hydrofluor scintillation buffer and counted using a Perkin Elmer Liquid Scintillation Analyzer (Tri-Carb 2810TR). Filters for A3AR binding were counted using a Packard Cobra II γ-counter. The Ki values were determined using GraphPad Prism for all assays.
(§5) [^3H](2-[p-(2-carboxyethyl)phenyl-ethylamino]-5′-N-ethylcarboxamido-adenosine) ([^3H]CGS21680, 40.5 Ci/mmol) and [^125I]N^6-(4-amino-3-iodobenzyl)adenosine-5′-N-methyluronamide ([^125I]I-AB-MECA, 2200 Ci/mmol) were purchased from PerkinElmer. Test compounds were prepared as 5-mM stock solutions in DMSO and stored frozen at −20° C.
as §2, with “Ill.). […]” for “Ill.).”

[7] = molecular target: T3, human A3AR; details: model compounds; values from Tosh et al. and Melman et al.; read-out: Affinity (Ki, nM), A3; cited from earlier work
[8] = molecular target: T2, human A1 AR; test: Radioligand binding at human A1 AR ([3H]NECA, membranes of CHO cells)
Experimental: as §3, §1, §4, §5
as §2, with “Ill.). […]” for “Ill.).”

[9] = inhibition of radioligand binding at 10 μM, values from Tosh et al.
[10] = at 10 μM, model compounds, values from Tosh et al. and Melman et al.
[11] = Example 7, agonist radioligand [125I]47, read-out: AR Affinity Ki, nM, A3

| SMILES | Ki [5, 11] [nM] | inhibition at 10 µM [8] [%] | inhibition at 10 µM [6] [%] | other results |
| --- | --- | --- | --- | --- |
| CNC(=O)C12CC1C(n1cnc3c(NCc4cccc(Cl)c4)nc(C#CCCC(=O)NCCNC(=O)CCCCC4SCC5NC(=O)NC54)nc31)C(O)C2O (stereo not shown) [Compound 2] | – | – | – | % inhibition, A2A [1, 9]: (51 ± 2%); % inhibition, A1 [2, 9]: (1 ± 1%); % Inhibition of cAMP formation at hA3 AR [3]: 84.5 ± 12.0% |
| C#CCCCC#Cc1nc(NCc2cccc(Cl)c2)c2ncn(C3C(O)C(O)C4(C(=O)NC)CC34)c2n1 (stereo not drawn) [Compound 8, (1′S, 2′R, 3′S, 4′S, 5′S)-4′-[6-(3-Chlorobenzylamino)-2-(1,6-heptadiynyl)-9H-purin-9-yl]-2′,3′-dihydroxybicyclo[3.1.0]hexane-1′-carboxylic acid N-methylamide] | – | – | – | % Inhibition of cAMP formation at hA3 AR [4]: 18.3 ± 7.6%; Ki ([5]; [125I]38, CHO cells, read-out: Affinity (Ki, nM), A3): 23.6 ± 3.9 nM; Ki ([6]; [3H]37, HEK293 cells, read-out: Affinity (Ki, nM), A2A): 4330 ± 500 nM |
| CCCC#Cc1nc(NCc2cccc(Cl)c2)c2ncn(C3C(O)C(O)C4(C(=O)NC)CC34)c2n1 (stereo not shown) [Compound 104b] | – | – | – | % inhibition, A2A [1, 10]: (80%) |
| CNC(=O)C12CC1C(n1cnc3c(NCc4cccc(C#CCCCCC(=O)NCCNC(C)=O)c4)nc(Cl)nc31)C(O)C2O (stereo not shown) [Compound 104c] | – | – | – | % inhibition, A2A [1, 10]: (80%); Ki ([2]; model compounds, values from Tosh et al. and Melman et al., read-out: Affinity (Ki, nM), A1): 181 nM; Ki [7]: 228 nM |
| CNC(=O)[C@@]12C[C@@H]1[C@@H](n1cnc3c(NCc4cn(C56CC7CC(CC(C7)C5)C6)nn4)nc(Cl)nc31)[C@H](O)[C@@H]2O [Compound 220, (1S,2R,3S,4R,5S)-4-(2-Chloro-6-((1-(adamantyl)-1H-1,2,3-triazol-4-yl)methylamino)-9H-purin-9-yl)-2,3-dihydroxy-N-methylbicyclo[3.1.0]hexane-1-carboxamide] | 38.1 ± 14.4 | 38.4 | 4.9 | – |
| C#CCNc1nc(Cl)nc2c1ncn2[C@H]1[C@H](O)[C@H](O)[C@@H]2C[C@@H]21 [Compound 222, (1R,2R,3S,4R,5S)-4-(2-Chloro-6-(prop-2-ynylamino)-9H-purin-9-yl) bicycle[3.1.0]hexane-2,3-diol] | 302 ± 26 | – | 28.3 | Ki ([8]; Example 7, agonist radioligand [3H]45, read-out: AR Affinity Ki, nM, A1): 5870 ± 830 nM |
| O=[N+]([O-])c1cc(-n2cc(CNc3nc(Cl)nc4c3ncn4[C@H]3[C@H](O)[C@H](O)[C@@H]4C[C@@H]43)nn2)ccc1F [Compound 223] | 388 ± 170 | 44.7 | 19.2 | – |
| O[C@@H]1[C@H](O)[C@@H]2C[C@@H]2[C@H]1n1cnc2c(NCc3cn(C45CC6CC(CC(C6)C4)C5)nn3)nc(Cl)nc21 [Compound 224] | 2190 ± 160 | 38.6 | 22.5 | – |
